{"source": "patent US5354892A", "about": "“Biaryl substituted 4-amino-butyric acid amides” (Ciba-Geigy Corporation, priority 1993, dated 1994)", "key": {"[1]": {"system": "rat plasma ANF concentration", "experiment": "Effect on rat plasma ANF concentration (ANF-infused conscious rats, radioimmunoassay)", "assay_type": "in vivo", "conditions": "doses of about 1-30 mg/kg p.o., administered in 10% ethanol/PEG 400, ANF infusion 450 ng/kg/min i.v.", "method": "The effect of the compounds of the invention on rat plasma ANF concentration can be determined as follows:\nMale Sprague-Dawley rats (275-390 g) are anesthetized -with ketamine (150 mg/kg)/acepromazine (10%) and instrumented with catheters in the femoral artery and vein to obtain blood samples and infuse ANF. respectively. The rats are tethered with a swivel system and are allowed to recover for 24 hours before being studied in the conscious, unrestrained state.\nIn this assay, plasma ANF levels are determined in the presence and absence of NEP inhibition. On the day of study, all rats are infused continuously with ANF at 450 ng/kg/min. i.v. for the entire 5 hours of the experiment. Sixty minutes after beginning the infusion, blood samples for baseline ANF measurements are obtained (time 0) and the rats are then randomly divided into groups treated with the test compound or vehicle. Additional blood samples are taken 30, 60, 120, 180 and 240 minutes after administration of the test compound.\nPlasma concentrations are determined by a specific radioimmunoassay. […] The supernatant is decanted and the pellets counted in a gamma counter. […] Plasma ANF levels are expressed as a percent of those measured in vehicle-treated animals which received ANF alone (450 ng/kg/min i.v.)."}, "[2]": {"system": "DOCA-salt hypertensive rats", "experiment": "Antihypertensive effect in DOCA-salt hypertensive rats", "assay_type": "in vivo", "conditions": "DOCA-salt hypertensive rat model; 30 mg/kg p.o., administered in PEG 400", "method": "The antihypertensive effect can be determined in desoxycorticosterone acetate (DOCA)-salt hypertensive rats.\nDOCA-salt hypertensive rats (280-380 g) are prepared by the standard method. Rats underwent a unilateral nephrectomy and one week later are implanted with silastic pellets containing 100 mg/kg of DOCA. The rats are maintained on 1% NaCl/0.2% KCl drinking water for three to five weeks until sustained hypertension is established. The antihypertensive activity is evaluated at this time.\nTwo days before an experiment, the rats are anesthetized with methoxyflurane and instrumented with catheters in the femoral artery to measure arterial blood pressure. Forty-eight hours later, baseline arterial pressure and heart rate are recorded during a 1 hour period. The test compound (30 mg/kg p.o.) or vehicle is then administered and the same cardiovascular parameters are monitored for an additional 5 hours."}}}
{"smiles": "CCOC(=O)[C@H](C)C[C@@H](Cc1ccc(-c2ccccc2)cc1)NC(=O)CCC(=O)O", "note": "[N-(3-carboxy-1-oxopropyl)-(4S)-(p-phenylphenylmethyl)-4-amino-2R-methylbutanoic acid ethyl ester]", "values": [{"measurement": "plasma ANF levels", "setting": "[1]", "result": "significant increases in plasma ANF levels"}, {"measurement": "blood pressure", "setting": "[2]", "result": "significant reduction in blood pressure"}]}
